Assay [1] addresses T1, human CCR5 (Homo sapiens, UniProt P51681).
T1 construct: expressed in transfected cells; host or cells: CHO cells co-expressing Gα16, under puromycin and zeocin selection; membrane preparation
Kind of assay: CCR5 receptor membrane binding assay ([125I]RANTES, CHO (Gα16) human CCR5 cell membranes, SPA beads). The conditions noted are these: bound radioactivity after 6 h, read-out: hKi [nM] (CCR5). As to the method: The above exemplary substances have been tested for binding to CCR5 using a binding assay as outlined herein below:
CHO, (Gα16) human CCR5 cells were cultured under standardized conditions at 37° C. and 5% CO2 in a humidified incubator. CHO (Gα16) human CCR5 cells were cultivated in Ham's F12 (Invitrogen; #31765068) supplemented with 10 μg/ml Puromycin (Invitrogen; #A11139-03), 200 μg/ml Zeocin (Invitrogen; #45-0003) and 10% FCS (Gibco; #10500-064).
Membranes were prepared from CHO (Gα16) human CCR5 cells. Cells were cultured on […] plates (Nunc; #166508) 2-3 days before membrane preparation (usually 80-100 plates to obtain 80 mg protein).
Cells were scraped off the plates with a big scraper and washed with 2×5 ml ice cold Phosphate Buffer Saline (PBS; Invitrogen; #14040-174). Cell suspension was collected in a glass bottle (on ice). Cell suspension was harvested at 1400 rpm and 4° C. for 10 min and washed in PBS. Cell pellet was resuspended in 40 ml PBS with protease inhibitor mix ‘complete’ (Roche; #11873580001; 1 tablet/50 ml).
For gentle cell disruption the membrane preparation was performed by using a homogenizer (potter). Cells were homogenized for 5-10 min.
Membranes were centrifuged at 1000 rpm and 4° C. for 5 min Supernatant (=membrane) was harvested in a new falcon tube and remaining cell pellet homogenized again for 5-10 min with PBS with protease inhibitor mix and centrifuged. Collected supernatant was centrifuged at 40000 rpm and 4° C. for 30 min to sediment the cell membranes.
The membranes were resuspended in 25 mM HEPES, 25 mM MgCl2, 1 mM CaCl2, 10% Glycerine for storage in aliquots at −80° C. Membranes were diluted to a concentration of 5 mg/ml (Bradford Assay).
(§1) Receptor Membrane Binding Assay:
[^125I]RANTES, Stock: 1825 Ci/mmol, 25 μCi (Bio Trend #A3-AI-676) was solved in 1000 μl assay buffer (100 mM NaCl; 10 mM MgCl2; 50 mM Tris-HCl; 1 mM EDTA; 0.1% BSA, pH 7.6), stored at −20° C.
CHO (Gα16) human CCR5 membrane were solved on ice and adjusted with assay buffer to a concentration of 2.5 μg/15 μl.
Amersham Biosciences PVT-WGA Beads (GE Healthcare; #RPNQ0001) were adjusted with assay buffer to a concentration of 8 mg/ml. For preparation of the membrane-bead-suspension, membranes and beads were incubated for 30 min at RT under rotation with a ratio of 1:2.
Test compounds dissolved in 100% DMSO to a concentration of 10 mM and are further diluted with 100% DMSO to 1 mM. All additional compound dilutions were obtained with assay buffer, final 1% DMSO. 7 μl compound dilution, 45 μl membrane-bead-suspension and 10 μl [^125I]RANTES (ca. 20000 cpm/10 μl) were incubated at RT. Bound radioactivity was determined by scintillation counter after 6 h. Determination of affinity of test compounds (dissociation constant Ki) is calculated by iterative fitting of experimental data using the “easy sys” program, which is based on law of mass action (Schittkowski K. (1994), Numerische Mathematik, Vol. 68, 129-142).

Assay [2] has as its target T2, CCR2 (Homo sapiens, UniProt P41597).
T2 construct: Membranes were prepared from THP-1 cells; endogenous in cells; host or cells: THP-1 (human acute monocytic leukaemia cells), membrane preparation
T2 sequence (P41597 1-360 isoform P41597-2): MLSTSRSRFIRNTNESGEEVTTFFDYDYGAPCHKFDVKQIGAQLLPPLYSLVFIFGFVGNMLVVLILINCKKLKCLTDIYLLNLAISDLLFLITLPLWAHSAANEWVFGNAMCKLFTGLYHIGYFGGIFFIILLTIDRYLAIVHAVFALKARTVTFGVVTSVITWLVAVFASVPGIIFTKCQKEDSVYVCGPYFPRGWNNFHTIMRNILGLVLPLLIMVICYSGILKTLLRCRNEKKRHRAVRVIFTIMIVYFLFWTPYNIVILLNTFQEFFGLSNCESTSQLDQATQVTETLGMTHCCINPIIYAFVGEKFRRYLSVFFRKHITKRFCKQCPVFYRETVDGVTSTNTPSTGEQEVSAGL
Nature of the assay: CCR2 receptor membrane binding assay ([125I]MCP-1, THP-1 cell membranes, SPA beads). To be noted: THP-1 membranes, [125I]MCP-1, bound radioactivity after 8 h; read-out: hKi [nM](CCR2). As to the method:
The above exemplary substances have been tested for binding to CCR2 using a binding assay as outlined herein below:
THP-1 cells (human acute monocytic leukaemia cells) were cultured under standardized conditions at 37° C. and 5% CO2 in a humidified incubator. THP-1 cells were cultivated in RPMI 1640 medium (Gibco 21875) containing 1% MEM-NEAA (Gibso 11140) 2 mM L-glutamine, 1.5 g/L sodium bicarbonate, 4.5 g/L glucose, 10 mM HEPES and 1.0 mM sodium pyruvate, 90%; 10% fetal calf serum (FCS Gibco 10500-064).
Membranes were prepared from THP-1 cells. THP-1 cells were centrifuged at 300×g at 4° C. for 10 min. The cell pellet was resuspendet in Phosphate Buffer Saline (PBS, including 10 μM Pefabloc and a protease inhibitor mix ‘complete’, Boehringer Mannheim (1 tablet/50 ml)), to a concentration of […]. The membrane preparation was performed by disrupting the cells by nitrogen […] (at 50 bar, for 1 h) in a “Nitrogen Bombe” (Parr Instrument). Cell debris was removed by centrifugation (800×g at 4° C., 1 min) The supernatant was centrifuged at 80000×g, 4° C. for 30 min to sediment the cell membranes. Usually 50 mg of protein (Bradford assay) were yielded from 1×10E9 cells. The membranes were resuspendet in 25 mM HEPES, 25 mM MgCl2, 1 mM CaCl2, 10% Glycerine for storage in aliquots at −80° C. in 25 mM HEPES, 25 mM MgCl2, 1 mM CaCl2, 10% Glycerine and stored at −80° C.
as §1
Perkin Elmer NEX 332 Jod^125 MCP-1, Stock: 2200 Ci/mmol solved in 2000 μl assay buffer, stored at −20° C. THP-1 membrane were adjusted with 25 mM HEPES, pH 7.2; 5 mM MgCl2; 0.5 mM CaCl2; 0.2% BSA assay buffer to a concentration of 2.5 μg/15 μl. Amersham Biosciences PVT-WGA Beads (RPNQ0001) were adjusted with assay buffer to a concentration of 0.24 mg/30 μl. For preparation of the membrane-bead-suspension membranes and beads were incubated for 30 min at RT under rotation (60 rpm) with a ratio of 1:2. Test compounds dissolved in 100% DMSO to a concentration of 10 mM and are further diluted with 100% DMSO to 1 mM. All additional compound dilutions were obtained with assay buffer, final 1% DMSO. Compounds, membrane-bead-suspension and [^125I]MCP-1 (ca. 25000 cpm/10 μl) were incubated. Bound radioactivity was determined by scintillation counter after 8 h. Determination of affinity of test compounds (dissociation constant hKi) is calculated by iterative fitting of experimental data using the “easy sys” program, which is based on law of mass action (Schittkowski K. (1994), Numerische Mathematik, Vol. 68, 129-142).

T1 sequence (P51681 whole entry): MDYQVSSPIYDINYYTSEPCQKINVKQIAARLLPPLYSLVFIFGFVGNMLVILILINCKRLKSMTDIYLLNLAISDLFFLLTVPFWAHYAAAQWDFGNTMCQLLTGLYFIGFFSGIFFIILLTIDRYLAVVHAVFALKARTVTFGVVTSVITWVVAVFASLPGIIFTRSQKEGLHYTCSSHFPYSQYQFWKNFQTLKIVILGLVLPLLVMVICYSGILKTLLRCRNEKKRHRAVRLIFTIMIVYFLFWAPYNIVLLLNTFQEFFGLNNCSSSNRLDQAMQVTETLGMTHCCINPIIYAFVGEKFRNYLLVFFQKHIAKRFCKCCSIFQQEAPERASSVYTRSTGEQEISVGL

On to `Cc1c(C(=O)N2CCC(N[C@H]3CCOC[C@H]3F)CC2)nc(CF)nc1N1CCc2ccc(C(F)(F)F)cc2C1` (relative stereo) [Example 45], for which the Ki was 3450 nM in assay [1] and 17 nM in assay [2].
As for `Cc1c(C(=O)N2CCC(N[C@H]3CCOC[C@@H]3F)CC2)nc(CF)nc1N1CCc2ccc(C(F)(F)F)cc2C1` (relative stereo) [Example 46], the Ki stood at 3680 nM in assay [1] and 34 nM in assay [2].
Regarding `CO[C@H]1COCC[C@H]1NC1CCN(C(=O)c2nc(C(F)(F)F)nc(N3CCc4ccc(C(F)(F)F)cc4C3)c2C)CC1` [Example 1], the Ki in assay [1] is 265 nM; in assay [2], 3 nM.
The like results for `CO[C@@H]1COCC[C@@H]1NC1CCN(C(=O)c2nc(C(F)(F)F)nc(N3CCc4ccc(C(F)(F)F)cc4C3)c2C)CC1` [Example 2] were, in that order, 150 nM and 2 nM.
The corresponding values for `CO[C@H]1COCC[C@H]1NC1CCN(C(=O)c2nc(C3CCOCC3)nc(N3CCc4cc(C(F)(F)F)ccc4C3)c2C)CC1` [Example 3] are 700 nM and 4 nM.
As for `CO[C@@H]1COCC[C@@H]1NC1CCN(C(=O)c2nc(C3CCOCC3)nc(N3CCc4cc(C(F)(F)F)ccc4C3)c2C)CC1` [Example 4], the Ki in assay [1] worked out at 310 nM; in assay [2], 2 nM.
As to `Cc1c(C(=O)N2CCC(N[C@H]3CCOC[C@H]3F)CC2)nc(C2CCOCC2)nc1N1CCc2cc(C(F)(F)F)ccc2C1` [Example 5], the results for the Ki in assay [1] and in assay [2] were 4580 nM and 14 nM, respectively.
Take `Cc1cc(-c2nc(C(=O)N3CCC(N[C@@H]4CCOC[C@@H]4F)CC3)c(C)c(N3CCc4cc(C(F)(F)F)ccc4C3)n2)no1` [Example 6]: the Ki in assay [1] amounted to 17300 nM; in assay [2], 20 nM.
The like results for `CO[C@@H]1COCC[C@@H]1NC1CCN(C(=O)c2nc(-c3cc(C)on3)nc(N3CCc4cc(C(F)(F)F)ccc4C3)c2C)CC1` [Example 7] were, in that order, 380 nM and 8 nM.
The like results for `Cc1c(C(=O)N2CCC(N[C@@H]3CCOC[C@@H]3F)CC2)nc(C2CCOCC2)nc1N1CCc2cc(C(F)(F)F)ccc2C1` [Example 8] were, in that order, 5870 nM and 11 nM.
Regarding `Cc1cc(-c2nc(C(=O)N3CCC(N[C@H]4CCOC[C@H]4F)CC3)c(C)c(N3CCc4cc(C(F)(F)F)ccc4C3)n2)no1` [Example 9], the values for the Ki in assay [1] and in assay [2] were 3400 nM and 38 nM, respectively.
In the case of `CO[C@H]1COCC[C@H]1NC1CCN(C(=O)c2nc(-c3cc(C)on3)nc(N3CCc4cc(C(F)(F)F)ccc4C3)c2C)CC1` [Example 10], the figures for the Ki in assay [1] and in assay [2] were 850 nM and 15 nM, respectively.
`CO[C@@H]1COCC[C@@H]1NC1CCN(C(=O)c2nc(-c3cc(C)on3)nc(NC[C@H]3CCC[C@@H](c4ccc(C(F)(F)F)cc4)O3)c2C)CC1` [Example 22]: the Ki in assay [2] worked out at 0.7 nM.
For `Cc1cc(-c2nc(NC[C@H]3CCC[C@@H](c4ccc(C(F)(F)F)cc4)O3)c(C)c(C(=O)N3CCC(N[C@H]4CCOC[C@H]4F)CC3)n2)no1` [Example 23], the Ki in assay [2] was 1 nM.
Same read-out and setting: in the case of `CO[C@H]1COCC[C@H]1NC1CCN(C(=O)c2nc(-c3cc(C)on3)nc(NC[C@H]3CCC[C@@H](c4ccc(C(F)(F)F)cc4)O3)c2C)CC1` [Example 25] it was 1 nM; in that of `CO[C@@H]1COCC[C@@H]1NC1CCN(C(=O)c2cc(NC[C@H]3CCC[C@@H](c4ccc(C)cc4)O3)nc(CF)n2)CC1` [Example 30], 3 nM.
Same read-out and setting: in the case of `Cc1ccc([C@@H]2CCC[C@H](CNc3cc(C(=O)N4CCC(NC5CCOCC5F)CC4)nc(CF)n3)O2)cc1` (some centres unmarked) [Example 31] it was 15 nM; in that of `CO[C@H]1COCC[C@H]1NC1CCN(C(=O)c2cc(NC[C@H]3CCC[C@@H](c4ccc(C)cc4)O3)nc(CF)n2)CC1` [Example 32], 5 nM; in that of `Cc1c(C(=O)N2CCC(NC3CCOCC3)CC2)nc(C(F)(F)F)nc1N1CCc2ccc(C(F)(F)F)cc2C1` [Example 33], 7 nM.
Consider `Cc1c(Nc2ccc(Cl)c(Cl)c2)nc(CF)nc1C(=O)N1CCC(N2CCC(N(C)S(C)(=O)=O)CC2)CC1` [Example 36], for which, in assay [2], the Ki is 2 nM.
On the same count and under the same terms, the result for `Cc1c(Nc2ccc(Cl)c(Cl)c2)nc(CF)nc1C(=O)N1CCC(N2CCOCC2)CC1` [Example 38] reads 37 nM; that for `CO[C@@H]1COCC[C@@H]1NC1CCN(C(=O)c2cc(NC[C@H]3CCC[C@@H](c4ccc(SC)cc4)O3)nc(CF)n2)CC1` [Example 39], 4 nM.
In the case of `CO[C@H]1COCC[C@H]1NC1CCN(C(=O)c2cc(NC[C@H]3CCC[C@@H](c4ccc(SC)cc4)O3)nc(CF)n2)CC1` [Example 41], the Ki in assay [2] came out at 2 nM.
Still for that read-out and setting: in the case of `CC(=O)N1CCC(c2nc(Nc3ccc(Cl)c(Cl)c3)c(C)c(C(=O)N3CCC(N[C@@H]4CCOC[C@@H]4F)CC3)n2)CC1` [Example 42] it was 17 nM.
As to `CC(=O)N1CCC(c2nc(Nc3ccc(Cl)c(Cl)c3)c(C)c(C(=O)N3CCC(N[C@H]4CCOC[C@H]4F)CC3)n2)CC1` [Example 43], the Ki in assay [2] was 19 nM.
Regarding `CO[C@@H]1COCC[C@@H]1NC1CCN(C(=O)c2nc(C3CCN(C(C)=O)CC3)nc(Nc3ccc(Cl)c(Cl)c3)c2C)CC1` [Example 44], the Ki in assay [2] was determined as 4 nM.
